# Measured values published in patent US20050020576A1, “Kappa agonist compounds and pharmaceutical formulations thereof” (priority 1996, published 2005).
# Counter-ions that a name gives are not always drawn.
# Target: cloned human kappa receptor (Homo sapiens, UniProt P41145)
# Assay: biochemical
# Type: binding
# Design: (3H)-Diprenorphin, % / k [3H] Diprenorphin, %: dose or concentration left out as unconfirmed
# Details: not given
# Chain of cloned human kappa receptor (P41145 whole entry): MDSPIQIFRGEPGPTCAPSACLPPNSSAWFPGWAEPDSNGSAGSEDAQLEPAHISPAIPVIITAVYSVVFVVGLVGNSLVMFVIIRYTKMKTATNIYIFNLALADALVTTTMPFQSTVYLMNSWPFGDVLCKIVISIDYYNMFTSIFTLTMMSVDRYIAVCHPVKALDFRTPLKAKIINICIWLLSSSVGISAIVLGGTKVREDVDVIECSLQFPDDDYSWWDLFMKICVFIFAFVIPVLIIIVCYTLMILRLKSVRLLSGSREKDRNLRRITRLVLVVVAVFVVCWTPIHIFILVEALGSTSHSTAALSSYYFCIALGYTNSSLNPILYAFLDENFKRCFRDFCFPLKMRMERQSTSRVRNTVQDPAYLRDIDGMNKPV
Compound,"(3H)-Diprenorphin, % [% @ 1 mM]","[3H]-Diprenorphin, % @ 1 μM [% @ 1 μM]"
"CC(=O)N1CCN(C(=O)Cc2ccccn2)C(CN2CCCC2)C1.Cl (racemic) [Example 1gg, 4-Acetyl-1-[(2-pyridyl)acetyl]-2-(R,S)-[(1-pyrrolidinyl)methyl]piperazine hydrochloride]",27,–
"Cl.O=CN1CCN(C(=O)Cc2ccccn2)C(CN2CCCC2)C1 (racemic) [Example 1hh, 4-Formyl-1-[(2-pyridyl)acetyl]-2-(R,S)-[(1-pyrrolidinyl)methyl]piperazine hydrochloride]",0,–
(±)-trans-3-N-Methyl-N-[2-(1-pyrrolidinyl)cyclohexyl]-(trans-3-furyl)acetamide hydrochloride [Example 4f],–,0
"CN(C(=O)Cc1ccc(C(F)(F)F)cc1NC(=O)/C=C\C(=O)O)C1CCCCC1N1CCCC1 (racemic) [Example 4b, (Z)-4-[2-((±)-trans-2-Amino-4-trifluoromethyl-N-methyl-N-[2-(1-pyrrolidinyl)-cyclohexyl]-phenylaetamido)]4-oxo-2-butenoic acid]",–,22

# Same assay, conditions: Ki (nM) [3H]-Diprenorphin κ
row,Compound,Ki [nM]
1,"CCOC(=O)/C=C/C(=O)Nc1cc(Cl)c(Cl)cc1CC(=O)N(C)[C@H](CN1CCCC1)c1ccccc1 [Example 3y, (E) Ethyl 4-[2-(2-amino-4,5-dichlorophenyl)-N-methyl-N-[(1S)-1-phenyl)-2-[1-pyrrolidinyl]ethyl]acetamido]4-oxo-2-butenoate hydrochloride]",0.35
2,"CC(C)C(=O)Nc1cccc([C@@H](CN2CCCC2)N(C)C(=O)Cc2ccccc2NC(=O)C(C)C)c1 [Example 3qq, 2-(2-Iso-butyramidophenyl)-N-methyl-N-[(1S)-1-(3-isobutyramido-phenyl)-2-(1-pyrrolidinyl)ethyl]acetamide Methanesulfonic acid salt]",21
3,"CN(C(=O)Cc1cc2c(cc1S(=O)(=O)N(C)Cc1ccccc1)OCO2)[C@H](CN1CCCC1)c1ccccc1 [Example 131, 2-[2-(N-Benzyl-N-methylsulfamoyl)-4,5-methylenedioxyphenyl]-N-methyl-N-[(1S)-1-phenyl-2-[(1-pyrrolidinyl)ethyl]]acetamide]",0.22
4,"COc1cc(CC(=O)N(C)[C@H](CN2CC[C@H](O)C2)c2ccccc2)c(S(=O)(=O)N2CCCC2)cc1OC [Example 135, 2-[2-(N-Pyrrolidinesulfamoyl)-4,5-dimethoxyphenyl]-N-methyl-N-[(1S)-1-phenyl-2-[1-(3S)-(3-hydroxypyrrolidinyl)ethyl]]acetamide]",0.66
5,"COc1cc(CC(=O)N(C)[C@H](CN2CCCC2)c2ccccc2)c(S(=O)(=O)N(C)Cc2ccccc2)cc1OC [Example 148, 2-[2-(N-Benzyl-N-methylsulfamoyl)-4,5-dimethoxyphenyl]-N-methyl-N-[(1S)-1-phenyl-2-[(1-pyrrolidinyl)ethyl]]acetamide]",0.83
6,"COc1cc(CC(=O)N(C)[C@H](CN2CCCC2)c2ccccc2)c(S(=O)(=O)N(C)Cc2ccccc2)cc1OC [Example 3xx, 2-(2-N-Benzyl-2-N-methylsulfamoyl-3,4-dimethoxyphenyl)-N-methyl-N-[(1S)-1-phenyl-2-(1-pyrrolidinyl)ethyl]acetamide hydrochloride]",0.83
7,"CN(C(=O)Cc1ccccc1NS(C)(=O)=O)C(CN1CCCC1)c1cccc(O)c1 (racemic) [Example 3vv, (R,S)-1-[2-(Methanesulfonylamino)phenyl-N-methylacetamido]-1-(3-hydroxyphenyl)-2-(1-pyrrolidino)-ethane, methanesulfonic acid salt]",19.5
8,"COc1cc(CC(=O)N(C)[C@H](CN2CCCC2)c2ccccc2)c(S(=O)(=O)N2CCOCC2)cc1OC [Example 140, 2-[2-N-(Morpholinesulfamoyl)-4,5-dimethoxyphenyl]-N-methyl-N-[(1S)-1-phenyl-2-[1-(pyrrolidinyl)ethyl]]acetamide]",0.56
9,"COc1cc(CC(=O)N(C)[C@H](CN2CCCC2)c2ccccc2)c(S(=O)(=O)N(C)CC(=O)O)cc1OC [Example 142, N-Methyl-[[2-(N-sulfamoyl)-4,5-dimethoxyphenyl]-N-methyl-N-[(1S)-1-phenyl-2-[1-(pyrrolidinyl)ethyl]]acetamido]glycine]",13
10,"COc1cccc(C(CN2CCCC2)N(C)C(=O)Cc2ccccc2NS(C)(=O)=O)c1 (racemic) [Example 3uu, (R,S)-1-[2-(Methanesulfonylamino)phenyl-N-methylacetamido]-1-(3-methoxyphenyl)-2-(1-pyrrolidino)-ethane, methanesulfonic acid salt]",17.5
11,COc1cc(CC(=O)N(C)[C@H](CN2CC[C@H](O)C2)c2ccccc2)c(S(=O)(=O)N2CCN(C)CC2)cc1OC [Example 139],4.2
12,"CN(C(=O)Cc1ccccc1NS(C)(=O)=O)[C@H](CN1CCCC1)c1cccc(NS(C)(=O)=O)c1 [Example 3pp, 2-(2-Methanesulfonamidophenyl)-N-methyl-N-[(1S)-1-(3-methanesulfon-amidophenyl)-2-(1-pyrrolidinyl)ethyl]acetamide Hydrochloride]",4.6

# Same assay, conditions: Ki, nM 3H-Diprenorphin
row,Compound,Ki [nM]
1,"CNS(=O)(=O)c1ccc(CC(=O)N2CCN(C(=O)OC)CC2CN2CCCC2)cc1 (racemic) [Example 1f, Methyl-4-[-4-[N-methylamino)sulfamyl]phenyl)acetyl]-3-(R,S)-[(1-pyrrolidinyl)methyl]-1-piperazinecarboxylate hydrochloride]",53.5
2,"COC(=O)N1CCN(C(=O)Cc2ccc(C(F)(F)F)cc2)C(CN2CC[C@H](OC(=O)Cc3ccc(C(F)(F)F)cc3)C2)C1 (mixture of isomers) [Example 1j, Methyl-4-[(4-a,a,a-trifluoromethylphenyl)acetyl]-3-(R,S)-[3-(S)-(4′-α,α,α-trifluoro methylphenylacetate)-1-(pyrrolidinyl)methyl]-1-piperazinecarboxylate hydrochloride]",13
3,"COC(=O)N1CCN(C(=O)Cc2ccc(C(F)(F)F)cc2N(S(C)(=O)=O)S(C)(=O)=O)C(CN2CCCC2)C1 (racemic) [Example 1b, Methyl-4-[(2-[N,N-bis-methylsulfonamido]-4-trifluoromethyphenyl)acetyl]-3-(R,S)-[(1-pyrrolidinyl)-methyl]-1-piperazinecarboxylate dihydrochloride]",7
4,"COC(=O)N1CCN(C(=O)Cc2ccc(C(F)(F)F)cc2N)C(CN2CCC[C@H]2CO)C1 (mixture of isomers) [Example 1p, Methyl-4-[(2-amino-4-α,α,α-trifluoromethylphenyl)acetyl]-3-(R,S)-[(2-(S)-pyrrolidinemethanol)methyl]-1-piperazinecarboxylate hydrochloride]",11
5,"CS(=O)(=O)N1CCN(C(=O)Cc2ccc(C(F)(F)F)cc2)C(CN2CC[C@H](OC(=O)Cc3ccc(C(F)(F)F)cc3)C2)C1 (stereo partly drawn) [Example 1mm, 4-Methylsulphonyl-1-[(4-α,α,α-triflouromethylphenyl)acetyl]-2-(R,S)-[3-(S)-(4′-α,α,α-triflouromethylphenyl acetate)-1-(pyrrolidinyl)methyl]piperazine hydrochloride]",287

# Same assay, conditions: Table IA; read-out: Ki(nM) (3H)-Diprenorphin
row,Compound,Ki [nM]
1,"CC(=O)N1CCN(C(=O)Cc2ccc(S(C)(=O)=O)cc2)C(CN2CC[C@H](OC(=O)Cc3ccc(S(C)(=O)=O)cc3)C2)C1 (mixture of isomers) [Example 1u, 4-Acetyl-1-[(4-methylsulfonyl]phenyl)acetyl]-2-(R,S)-[3-(S)-(4′-methylsulfonylphenyl acetate)-1-(Pyrrolidinyl)methyl]piperazine hydrochloride]",1780

# Same assay, conditions: Table IIIA; read-out: Ki (nM) [3H]-Diprenorphin κ
row,Compound,Ki [nM]
1,"CN(C(=O)Cc1ccc(C(F)(F)F)cc1NCC(=O)O)[C@H](CN1CCCC1)c1ccccc1 [Example 3b, N-[(4-Trifluoromethylphenyl)-N-methyl-N-{[1S]-1-phenyl-2-[1-pyrrolidinyl)]ethyl}acetamido]glycine hydrochloride]",464

# Same assay, conditions: read-out: Ki (nM) [3H]-Diprenorphin κ
row,Compound,Ki [nM]
1,"CN(C(=O)Cc1ccccc1NC(=O)/C=C\C(=O)O)[C@H](CN1CCCC1)c1ccccc1 [Example 3aa, (Z)-4-[2-(2-Aminophenyl)-N-methyl-N-[(1S)-1-phenyl)-2-(1-pyrrolidinyl]-ethyl]acetamido]4-oxo-2-butenoic acid hemimaleate]",5280

# Same assay, conditions: read-out: Ki(nM) [3H]-Diprenorphin κ
row,Compound,Ki [nM]
1,"COc1cc(CC(=O)N(C)[C@H](CN2CCCC2)c2ccccc2)c(S(=O)(=O)NC(C)(C)C)c(OC)c1OC [Example 144, 2-[2-(N-t-Butylsulfamoyl)-3,4,5-trimethoxyphenyl]-N-methyl-N-[(1S)-1-phenyl-2-[(1-pyrrolidinyl)ethyl]]acetamide]",0.17
2,"COc1cc(CC(=O)N(C)[C@H](CN2CC[C@H](O)C2)c2ccccc2)c(S(=O)(=O)N(C)C)cc1OC [Example 137, 2-[2-(N-Dimethylsulfamoyl)-4,5-dimethoxyphenyl]-N-methyl-N-[(1S)-1-phenyl-2-[1-(3S)-(3-hydroxypyrrolidinyl)ethyl]]acetamide]",0.83

# System: not given
# Assay: not given
# Details: not given
row,Compound,melting point
1,CN(C(=O)Cc1ccc(C(F)(F)F)cc1[N+](=O)[O-])[C@@H]1c2ccccc2C[C@H]1N1CCCC1 (racemic) (as salt: HCl),249 to 250 °C
2,"CS(=O)(=O)N1CCN(C(=O)Cc2c[nH]c3ccccc23)C(CN2CCCC2)C1 (racemic) (as salt: hydrochloride) [(R,S-8e), (R,S)-4-Methanesulfonyl-1-[(3-indolylacetyl-2-[(1-pyrrolidinyl)-methyl]piperazine hydrochloride]",219 to 221 °C
3,"CN(C(=O)Cc1ccc(Cl)c(Cl)c1)[C@H](CN1CCCC1)c1cccc(NC(=O)CCC(=O)NCC(=O)O)c1 (as salt: hydrochloride) [Example 3j, 2-(3,4-Dichlorophenyl)-N-methyl-N-{(1R,S)-1-[3-(3-(((hydroxycarbonyl)-methyl)aminocarbonyl)propionamido)phenyl]-2-(1-pyrrolidinyl)ethyl}acetamide hydrochloride]",158 °C (dec.)
4,"COc1cc(CC(=O)N(C)[C@H](CN2CCCC2)c2ccccc2)c(S(=O)(=O)N(C)Cc2ccccc2)cc1OC (as salt: hydrochloride) [Example 3xx, 2-(2-N-Benzyl-2-N-methylsulfamoyl-3,4-dimethoxyphenyl)-N-methyl-N-[(1S)-1-phenyl-2-(1-pyrrolidinyl)ethyl]acetamide hydrochloride]",188 to 190 °C
